In series [1] the test system is HeLa cells. Kind of series: Cytotoxicity experiment by MTT method. The format is cell-based, human. As to the method: To confirm the cytotoxicity of Compound 2 according to the present invention, a cytotoxicity experiment in HeLa cells was performed by an MTT method. That is, the Hela cells prepared by the same method as used in Example 7 were treated with Compound 2 at each concentration (0˜100 μM). In addition, to confirm the cytotoxicity, 25 μL of 3-(4,5-dimethldiazol-2-yl)-2, 5-diphenyltetrazolium bromide (MTT) having a concentration of 5 mg/mL was added. The cells were cultured at 37° C. for about 2 hours, treated with 100 μL of a solubilizing solution (50% dimethylformamide, 20% SDS, pH 7.4), and cultured at 37° C. for 24 hours, and then the absorbance was measured at 570 nm.

For series [2], the system named is hydrogen sulfide (H2S) in each organ (the brain, kidney, liver, spleen or lung) of a mouse. Kind of series: Mouse organ tissue imaging using two-photon fluorescence microscope. The format is in vivo. As to the method:
Tissue imaging per each organ of a Compound 2 treated mouse was performed using a two-photon fluorescence microscope. That is, the distribution of hydrogen sulfide (H2S) in each organ (the brain, kidney, liver, spleen or lung) of a mouse was confirmed using Compound 2. To this end, a set (1′) was prepared by injecting Compound 2 into the abdominal cavity of a live mouse and extracting an organ, and a set (2′) was prepared by extracting each organ of a mouse and immersing the organ in a solution of Compound 2. The mouse used in the experiment was a C57BL6 type (SAMTAKO Corp.), which is five weeks old. More particularly, for the set (1′), 20 μL of a 10 mM solution of Compound 2, which had been taken and diluted in 280 μL of a PBS (100 mM, pH 7.4) buffer, was injected into the abdominal cavity of a mouse twice a day for a total of 5 days, and then each organ was extracted. The extracted organ was frozen in dry ice for 5 minutes, crushed into smaller pieces with a hammer, and cut to a thickness of 16 μm using a section machine (Cryostat machine, Leica, CM3000 model). […] Subsequently, the resultant sample was washed three times with a PBS buffer, covered with a mount solution (Gel Mount, BIOMEDA), and then imaged using a two-photon fluorescence microscope, which is the same as used in Example 7. However, an excitation wavelength and laser power of the two-photon fluorescence microscope were 880 nm and 40 mW, respectively. Also, for the set (2′), first, each organ of a mouse was extracted and immersed in a solution (10 μM) of Compound 2 for 10 minutes, and then a sample prepared as described above was imaged by the same method used for the set (1′).

Series [3] in a line: Fluorescence change under hydrogen sulfide and biological sulfide conditions (selectivity). Conditions: Compound 10 μM; Na2S 100 μM, GSH 10 mM, Cys 200 μM, Hcy 50 μM; pH 7.4 HEPES buffer; excitation 375 nm, emission 510 nm. The procedure: To confirm the hydrogen sulfide selectivity of Compound 2 under hydrogen sulfide and biological sulfide conditions, the fluorescence change of Compound 2 (10 μM) was observed under biological sulfide conditions (Na2S (100 μM), the same material as H2S), glutathione (GSH, 10 mM), cysteine (Cys, 200 μM), and homocysteine (Hcy, 50 μM) (using the same buffer as used in Example 1)). Here, an excitation wavelength was 375 nm, and a fluorescence emission wavelength was detected to be 510 nm.
That is, the fluorescence changes of Compounds 2, 3 and 4 (10 μM) were observed under the biological sulfide conditions (Na2S (100 μM, the same as H2S), glutathione (GSH, 10 mM), cysteine (Cys, 200 μM), homocysteine (Hcy, 50 μM)), a buffer used in the experiment was the same as used in Example 1, an excitation wavelength was 375 nm, and a fluorescence emission wavelength was detected to be 510 nm.

A short description of series [4]: Fluorescence change of the probe on reaction with hydrogen sulfide in buffer. Conditions: Compound 10 μM. The procedure:
A mechanism of a fluorescence turn-on phenomenon according to a reaction between Compound 2 and hydrogen sulfide is shown in FIG. 1a, an α-β unsaturated carbonyl group of Compound 2 reacted with hydrogen sulfide to induce a ring-shape in a chemical reaction.
Therefore, to observe the fluorescence change of Compound 2 due to hydrogen sulfide, a fluorescence graph of Compound 2 was measured in a buffer (pH 7.4, 10 mM HEPES buffer). For fluorescence spectra analysis, a photon technical international fluorescence system manufactured by PTI was used, as a cell providing Compound 2 to each instrument, a standard quartz cell having a thickness of 1 cm was used. First, Compound 2 (10 μM) was treated with hydrogen sulfide at a concentration of 0 to 50 μM, and after 5 minutes, a fluorescence graph was checked.
To observe the fluorescence change of Compound 2 over time due to hydrogen sulfide, Compound 2 (10 μM) was treated with 100 μM of hydrogen sulfide (using the same buffer as used in Example 1), and a graph of fluorescence over time was analyzed. When an excitation wavelength was 375 nm, a fluorescence emission wavelength was detected to be 510 nm.
To observe the hydrogen sulfide sensitivity of Compound 2 based on fluorescence change, an amount of Na2S (the same as H2S) in Compound 2 (10 μM) was reduced. A buffer used in the experiment was the same as used in Example 1, 50 nM of Na2S was added, an excitation wavelength was 375 nm, and a fluorescence emission wavelength was detected to be 510 nm.
To observe fluorescence changes of Compound 2 due to hydrogen sulfide under various acidity (pH) conditions, the fluorescence changes were examined when Compound 2 (10 μM) bound to H2S under various acidity conditions (pH 5˜9). In other words, 100 μM of H2S reacted to Compound 2 at pH 5, 6, 7, 8, or 9, and then 5 minutes later, a fluorescence intensity was measured. Here, an excitation wavelength was 375 nm, and a fluorescence emission wavelength was detected to be 510 nm.

Series [5] in a line: Fluorescence change on reaction with various types of biological substances. To be noted: Compound 10 μM; amino acids, lipoic acid, anions, H2O2 each 100 μM; about 30 minutes; pH 7.4 HEPES buffer. The procedure:
To observe fluorescence changes according to reactions between various types of biological substances and Compound 2, Compound 2 (10 μM) was reacted with a biologically-active substance (an amino acid (Ala, Glu, Lys, or Met), lipoic acid, an anion (NO^2−, SO4^2−, S2O3^2−, SCN^−, or I^−), and active oxygen (H2O2). A buffer used in the experiment was the same as used in Example 1, and the concentration of each biologically-active substance was 100 μM. Each biologically-active substance was added, and after about 30 minutes, an excitation wavelength was 375 nm, and a fluorescence emission wavelength was detected to be 510 nm.

In series [6] the test system is HeLa cells. Kind of series: Cell imaging using one-photon and two-photon fluorescence microscopes. It counts as cell-based, human. Conditions: probe 10 μM. As to the method: To observe a fluorescence change according to the treatment with Compound 2 through cell imaging using one-photon and two-photon fluorescence microscopes, Compound 2 (10 μM) was treated with human cervical carcinoma cells (HeLa cells). The HeLa cells were cultured in a Dulbecco's modified eagles medium (DMEM, Hyclone) containing 10% fetal bovine serum (Hyclone) and penicillin-streptomycin (Hyclone) with 5% carbon dioxide at an ambient temperature of 37° C. to a cell density of about 20,000 cells/cm^2, and used in the experiment. The used one-photon fluorescence microscope is an LSM710 confocal microscope manufactured by Carl Ziess, and the two-photon fluorescence microscope is a Chameleon Ultra model having a Ti-sapphire laser, which is manufactured by Coherent. A lens used in the two-photon fluorescence microscope is an XLUMPLFNM, NA 1.0 model manufactured by Olympus, and a wavelength and laser power of the two-photon fluorescence microscope are 880 nm and 15 mW, respectively. […]

The mark [7] stands for this setting: 100 μM hydrogen sulfide, pH 7.4 10 mM HEPES buffer, excitation 375 nm, emission 510 nm.

“Also recorded” adds a separate entry of the source.

What is called cell viability is the share of living cells, or the viability signal relative to a control. Low readings indicate a greater loss of cells, high ones better survival.

Regarding `COc1cc(C=O)c(/C=C/C(=O)c2ccc3cc(NCCO)ccc3c2)c(OC)c1` [Compound 2, (E)-2-(3-(6-(2-hydroxyethylamino)naphthalene-2-yl)-3-oxoprop-1-enyl)-3,5-dimethoxybenzaldehyde], the cytotoxicity result in the series on HeLa cells [1] (0˜100 μM) is “not toxic to the cells”. This molecule registered a cell viability with HeLa cells [1] (concentrations until 100 μM) not below 95%. For the same molecule, the “two-photon fluorescence signal in organs after abdominal injection” value in series [2] (set (1′): C57BL6 mouse, injected into the abdominal cavity twice a day for 5 days, organs extracted) was “signals are increased in the brain, kidney, liver, spleen and lung”. The “permeation into organs after abdominal injection” value in series [2] (set (1′): living C57BL6 mouse, abdominal injection) is “permeated throughout the organ, particularly, into the brain”. Besides, the “two-photon fluorescence change in extracted organs immersed in probe solution” value in series [2] (set (2′): extracted mouse organs immersed in 10 μM solution for 10 minutes) was “strong fluorescence changes are shown in the brain, liver and lung”. Also, in series [3], the “selectivity to hydrogen sulfide under biological sulfide conditions” value is “sufficient fluorescence turn-on phenomenon only in a reaction with Na2S; also recorded: high selectivity to hydrogen sulfide”. Further, the “signal to noise ratio of fluorescence turn-on” value in series [4] (50 nM Na2S, about 5 minutes after addition, pH 7.4 HEPES buffer) is listed as not below 3. Also, the “fluorescence change due to hydrogen sulfide under various acidity (pH) conditions” value in series [4] (100 μM H2S, pH 5, 6, 7, 8 or 9, 5 minutes) is given as “the sharpest increase in fluorescence was shown at neutral pH”. In addition, in series [4] (setting [7]), the “time to approach the maximum fluorescence level” value is not above 5 min and the “time to saturation of fluorescence emission” value is “about 10 minutes”. Besides, in series [4] (hydrogen sulfide 0 to 50 μM, after 5 minutes, pH 7.4 10 mM HEPES buffer, excitation 375 nm, emission 510 nm), the “fluorescence change with increasing concentration of hydrogen sulfide” value was “fluorescence intensity was increased”. Moreover, in series [4] (pH 7.4 HEPES buffer, excitation 375 nm, emission 510 nm), the “low concentration of Na2S (H2S) at which fluorescence can be observed (sensitivity)” value was 50 nM. Besides, the “selective fluorescence turn-on versus various biologically-active substances” value in series [5] was “only reacts with hydrogen sulfide (H2S)”. The permeation into cells entry with HeLa cells [6] is on record as “easily permeates into cells”. Moreover, the “fluorescence change in cells treated only with the probe” value in the series on HeLa cells [6] (cultured 30 minutes, set (2)) is listed as “showed an increase in fluorescence”.
Turning to `COc1cccc(C=O)c1/C=C/C(=O)c1ccc2cc(NCCO)ccc2c1` [Compound 3, (E)-2-(3-(6-(2-hydroxyethylamino)naphthalene-2-yl)-3-oxoprop-1-enyl)-3-methoxybenzaldehyde], the “selectivity to hydrogen sulfide under biological sulfide conditions” value in series [3] is “relatively lower selectivity to hydrogen sulfide than Compound 2”.
Still for that read-out and setting: in the case of `O=Cc1ccccc1/C=C/C(=O)c1ccc2cc(NCCO)ccc2c1` [Compound 4, (E)-2-(3-(6-(2-hydroxyethylamino)naphthalene-2-yl)-3-oxoprop-1-enyl)benzaldehyde] it was “did not have selectivity to hydrogen sulfide”.

(Values after patent US20160274123A1, “One-Photon and/or Two-Photon Fluorescent Probe for Sensing Hydrogen Sulfide, Imaging Method of Hydrogen Sulfide Using Same, and Manufacturing Method Thereof” (POSTECH ACADEMY-INDUSTRY FOUNDATION, priority 2013, published 2016).)
